Earlier results on 6 compounds are cited in article PMC7467712, “Physical Mechanisms Governing Substituent Effects on Arene–Arene Interactions in a Protein Milieu” (The Journal of Physical Chemistry. B, 2020).

The data set concerns Mus musculus AChE. Set-up: method as in PMID 23984975. The settings on record: 95% confidence interval within parentheses, at least four replicates.

`CCN(CC)CCNS(=O)(=O)Cc1ccc(Cl)cc1` [AL011]: the IC50 (as a rule, the concentration needed to halve the response being measured) was 12 µM.

Consider `CCN(CC)CCNS(=O)(=O)Cc1ccccc1` [AL029], for which the half-maximal inhibitory concentration (IC50) was 139 µM.

`CCN(CC)CCNS(=O)(=O)Cc1ccc(F)cc1` [AL036]: the IC50 is 40 µM.

Turning to `CCN(CC)CCNS(=O)(=O)Cc1ccc(C(F)(F)F)cc1` [AL037], the IC50 is 12 µM.

In the case of `CCN(CC)CCNS(=O)(=O)c1cccc(C(F)(F)F)c1` [AL040], the IC50 is 22 µM.

Consider `CCN(CC)CCNS(=O)(=O)c1cccc(OC)c1` [AL041], for which the half-inhibitory concentration (IC50) is 7 µM.
